Test results reported in ChEMBL document CHEMBL5678812, “Inhibitors of p21-activated kinases (PAKs)” (J Med Chem, 2015).

Columns and labels:
[1] = target: Insulin receptor-related protein (Homo sapiens) (UniProt P14616); assay: Inhibition of IRR (unknown origin) at 0.1 uM relative to control
[2] = target: Tyrosine-protein kinase ABL1 (Homo sapiens) (UniProt P00519); assay: Inhibition of Abl (unknown origin) at 0.1 uM relative to control
[3] = target: Serine/threonine-protein kinase MARK1 (Homo sapiens) (UniProt Q9P0L2); assay: Inhibition of MARK1 (unknown origin) at 0.1 uM relative to control
[4] = target: Serine/threonine-protein kinase 24 (Homo sapiens) (UniProt Q9Y6E0); assay: Inhibition of MST3 (unknown origin) at 0.1 uM relative to control
[5] = test system: RAF proto-oncogene serine/threonine-protein kinase (Homo sapiens), P04049 [Y340D,Y341D]; assay: Inhibition of RAF1 Y340D/Y341D double mutant (unknown origin) at 0.1 uM relative to control
RAF proto-oncogene serine/threonine-protein kinase (Homo sapiens), P04049 [Y340D,Y341D], sequence (P04049 whole entry Y340D/Y341D): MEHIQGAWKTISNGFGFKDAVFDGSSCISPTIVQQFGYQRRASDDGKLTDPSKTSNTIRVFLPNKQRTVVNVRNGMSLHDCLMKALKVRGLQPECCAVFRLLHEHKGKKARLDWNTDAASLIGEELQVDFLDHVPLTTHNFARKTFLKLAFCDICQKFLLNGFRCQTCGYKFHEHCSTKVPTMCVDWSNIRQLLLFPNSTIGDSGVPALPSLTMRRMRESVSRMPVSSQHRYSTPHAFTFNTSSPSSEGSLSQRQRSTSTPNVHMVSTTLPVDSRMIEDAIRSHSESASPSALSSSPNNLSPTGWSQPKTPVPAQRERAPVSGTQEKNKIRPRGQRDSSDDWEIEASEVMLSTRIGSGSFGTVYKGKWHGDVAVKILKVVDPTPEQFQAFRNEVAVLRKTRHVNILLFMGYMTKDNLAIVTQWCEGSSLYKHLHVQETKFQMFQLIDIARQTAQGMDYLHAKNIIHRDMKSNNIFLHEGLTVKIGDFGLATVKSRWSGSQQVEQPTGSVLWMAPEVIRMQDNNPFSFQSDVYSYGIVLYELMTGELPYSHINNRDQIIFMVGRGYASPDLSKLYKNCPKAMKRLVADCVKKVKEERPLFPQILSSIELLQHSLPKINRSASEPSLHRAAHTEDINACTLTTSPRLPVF

[6] = target: Mitogen-activated protein kinase 10 (Homo sapiens) (UniProt P53779); assay: Inhibition of JNK3 (unknown origin) at 0.1 uM relative to control
Mitogen-activated protein kinase 10 (Homo sapiens), sequence (P53779 whole entry): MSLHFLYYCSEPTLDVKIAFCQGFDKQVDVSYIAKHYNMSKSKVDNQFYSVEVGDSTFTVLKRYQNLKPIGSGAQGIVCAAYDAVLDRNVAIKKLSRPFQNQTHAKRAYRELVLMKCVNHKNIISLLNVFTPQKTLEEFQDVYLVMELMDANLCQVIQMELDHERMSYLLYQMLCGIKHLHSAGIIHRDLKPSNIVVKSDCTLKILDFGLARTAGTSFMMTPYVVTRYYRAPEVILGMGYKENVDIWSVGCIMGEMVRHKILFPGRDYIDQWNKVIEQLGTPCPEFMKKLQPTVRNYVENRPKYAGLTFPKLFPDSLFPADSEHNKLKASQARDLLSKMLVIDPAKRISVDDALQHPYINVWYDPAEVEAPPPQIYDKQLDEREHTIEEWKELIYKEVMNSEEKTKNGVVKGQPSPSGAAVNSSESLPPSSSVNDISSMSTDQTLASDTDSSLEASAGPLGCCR

[7] = target: Insulin-like growth factor 1 receptor (Homo sapiens) (UniProt P08069); assay: Inhibition of IGF1R (unknown origin) at 0.1 uM relative to control
[8] = target: Glycogen synthase kinase-3 beta (Homo sapiens) (UniProt P49841); assay: Inhibition of GSK beta (unknown origin) at 0.1 uM relative to control
[9] = target: Serine/threonine-protein kinase PAK 5 (Homo sapiens, UniProt Q9P286); assay: Inhibition of PAK5 (unknown origin) at 0.1 uM relative to control
[10] = target: Serine/threonine-protein kinase TAO1 (Homo sapiens) (UniProt Q7L7X3); assay: Inhibition of TAO1 (unknown origin) at 0.1 uM relative to control
[11] = target: Testis-specific serine/threonine-protein kinase 1 (Homo sapiens) (UniProt Q9BXA7); assay: Inhibition of TSSK1 (unknown origin) at 0.1 uM relative to control
[12] = target: Misshapen-like kinase 1 (Homo sapiens) (UniProt Q8N4C8); assay: Inhibition of Mink1 (unknown origin) at 0.1 uM relative to control
[13] = target: Serine/threonine-protein kinase D1 (Homo sapiens) (UniProt Q15139); assay: Inhibition of PKD1 (unknown origin) at 0.1 uM relative to control
Serine/threonine-protein kinase D1 (Homo sapiens), sequence (Q15139 whole entry): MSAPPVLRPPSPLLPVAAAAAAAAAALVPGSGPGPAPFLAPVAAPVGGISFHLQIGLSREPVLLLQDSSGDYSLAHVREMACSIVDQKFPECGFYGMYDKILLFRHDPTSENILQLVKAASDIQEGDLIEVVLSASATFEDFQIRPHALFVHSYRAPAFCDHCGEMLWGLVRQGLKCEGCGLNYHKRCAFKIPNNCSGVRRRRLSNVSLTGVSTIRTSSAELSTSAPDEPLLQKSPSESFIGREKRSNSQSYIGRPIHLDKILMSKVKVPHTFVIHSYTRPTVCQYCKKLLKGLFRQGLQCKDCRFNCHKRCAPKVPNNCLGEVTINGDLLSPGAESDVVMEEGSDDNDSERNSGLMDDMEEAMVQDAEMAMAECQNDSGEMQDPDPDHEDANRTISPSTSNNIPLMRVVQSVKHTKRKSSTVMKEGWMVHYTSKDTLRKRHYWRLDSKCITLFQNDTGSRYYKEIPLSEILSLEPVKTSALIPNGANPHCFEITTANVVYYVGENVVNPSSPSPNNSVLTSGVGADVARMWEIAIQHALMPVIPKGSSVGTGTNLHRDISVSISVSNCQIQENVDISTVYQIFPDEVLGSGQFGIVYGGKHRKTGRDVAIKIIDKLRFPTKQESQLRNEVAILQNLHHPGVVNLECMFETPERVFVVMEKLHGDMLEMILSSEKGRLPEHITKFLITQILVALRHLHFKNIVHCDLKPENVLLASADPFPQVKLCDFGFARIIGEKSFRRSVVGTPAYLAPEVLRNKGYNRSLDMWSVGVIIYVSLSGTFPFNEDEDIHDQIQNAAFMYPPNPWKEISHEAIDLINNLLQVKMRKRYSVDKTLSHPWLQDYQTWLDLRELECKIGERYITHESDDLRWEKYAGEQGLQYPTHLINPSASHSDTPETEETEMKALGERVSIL

[14] = target: Mitogen-activated protein kinase kinase kinase 8 (Homo sapiens) (UniProt P41279); assay: Inhibition of Cot (unknown origin) at 0.1 uM relative to control
[15] = target: Dual specificity mitogen-activated protein kinase kinase 1 (Homo sapiens) (UniProt Q02750); assay: Inhibition of MEK1 (unknown origin) at 0.1 uM relative to control
[16] = target: Epidermal growth factor receptor (Homo sapiens) (UniProt P00533); assay: Inhibition of EGFR (unknown origin) at 0.1 uM relative to control
[17] = target: RAC-alpha serine/threonine-protein kinase (Homo sapiens) (UniProt P31749); assay: Inhibition of AKT1 (unknown origin) at 0.1 uM relative to control
[18] = target: Serine/threonine-protein kinase Nek9 (Homo sapiens) (UniProt Q8TD19); assay: Inhibition of NEK9 (unknown origin) at 0.1 uM relative to control
Serine/threonine-protein kinase Nek9 (Homo sapiens), sequence (Q8TD19 whole entry): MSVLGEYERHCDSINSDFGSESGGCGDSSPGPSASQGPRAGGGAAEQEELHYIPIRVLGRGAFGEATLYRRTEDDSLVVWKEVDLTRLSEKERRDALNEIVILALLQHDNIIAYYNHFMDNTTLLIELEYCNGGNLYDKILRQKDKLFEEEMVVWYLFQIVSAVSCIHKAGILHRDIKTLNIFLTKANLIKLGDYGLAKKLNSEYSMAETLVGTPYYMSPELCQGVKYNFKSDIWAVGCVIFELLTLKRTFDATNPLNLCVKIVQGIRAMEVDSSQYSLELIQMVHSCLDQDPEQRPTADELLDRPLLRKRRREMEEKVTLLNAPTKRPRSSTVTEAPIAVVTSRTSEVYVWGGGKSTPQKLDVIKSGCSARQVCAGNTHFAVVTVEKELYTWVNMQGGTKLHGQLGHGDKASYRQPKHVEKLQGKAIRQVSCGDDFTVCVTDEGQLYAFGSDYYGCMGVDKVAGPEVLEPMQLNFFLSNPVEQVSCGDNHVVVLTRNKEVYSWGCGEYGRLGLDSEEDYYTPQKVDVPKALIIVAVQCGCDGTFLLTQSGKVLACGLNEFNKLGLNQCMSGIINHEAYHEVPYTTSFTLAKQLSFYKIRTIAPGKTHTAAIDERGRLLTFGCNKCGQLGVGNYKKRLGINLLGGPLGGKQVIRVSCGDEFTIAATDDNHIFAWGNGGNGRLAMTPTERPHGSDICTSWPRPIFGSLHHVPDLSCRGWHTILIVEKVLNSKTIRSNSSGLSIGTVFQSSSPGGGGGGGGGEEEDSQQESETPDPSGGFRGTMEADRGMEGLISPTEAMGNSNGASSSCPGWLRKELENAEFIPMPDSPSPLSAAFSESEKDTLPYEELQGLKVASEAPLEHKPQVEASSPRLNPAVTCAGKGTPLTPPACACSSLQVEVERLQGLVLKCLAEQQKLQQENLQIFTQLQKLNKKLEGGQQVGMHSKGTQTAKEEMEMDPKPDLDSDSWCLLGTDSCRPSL

[19] = target: 5'-AMP-activated protein kinase catalytic subunit alpha-1 (Homo sapiens) (UniProt Q13131); assay: Inhibition of PRKAA1 (unknown origin) at 0.1 uM relative to control
[20] = target: Cyclin-dependent kinase 1/cyclin B1 (Homo sapiens) (UniProt P06493+P14635); assay: Inhibition of CDK1/cyclinB (unknown origin) at 0.1 uM relative to control; type: protein-complex assay
Cyclin-dependent kinase 1/cyclin B1 (Homo sapiens), sequence (P06493 whole entry, looked up): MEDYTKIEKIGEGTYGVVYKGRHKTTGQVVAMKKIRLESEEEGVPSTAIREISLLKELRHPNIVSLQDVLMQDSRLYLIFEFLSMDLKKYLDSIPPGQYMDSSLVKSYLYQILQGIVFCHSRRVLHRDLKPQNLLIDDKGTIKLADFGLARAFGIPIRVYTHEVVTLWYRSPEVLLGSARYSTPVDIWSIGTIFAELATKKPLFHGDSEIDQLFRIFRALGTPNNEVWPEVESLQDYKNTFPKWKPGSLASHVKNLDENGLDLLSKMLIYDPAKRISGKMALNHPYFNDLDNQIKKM
Cyclin-dependent kinase 1/cyclin B1 (Homo sapiens), sequence (P14635 whole entry, looked up): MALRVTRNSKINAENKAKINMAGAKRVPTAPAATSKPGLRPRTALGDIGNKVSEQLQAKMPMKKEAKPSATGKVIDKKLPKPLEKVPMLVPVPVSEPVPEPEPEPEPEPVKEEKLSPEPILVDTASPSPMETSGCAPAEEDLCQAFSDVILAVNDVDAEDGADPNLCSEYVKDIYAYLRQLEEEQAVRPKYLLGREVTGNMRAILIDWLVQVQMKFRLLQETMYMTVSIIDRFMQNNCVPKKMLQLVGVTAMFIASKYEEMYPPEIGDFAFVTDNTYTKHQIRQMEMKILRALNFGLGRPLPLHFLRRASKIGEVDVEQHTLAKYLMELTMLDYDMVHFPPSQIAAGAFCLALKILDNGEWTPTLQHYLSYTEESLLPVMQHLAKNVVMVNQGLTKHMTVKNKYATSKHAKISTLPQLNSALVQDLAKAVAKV

[21] = target: Cytoplasmic tyrosine-protein kinase BMX (Homo sapiens) (UniProt P51813); assay: Inhibition of Bmx (unknown origin) at 0.1 uM relative to control
[22] = target: Tyrosine-protein kinase Mer (Homo sapiens) (UniProt Q12866); assay: Inhibition of Mer (unknown origin) at 0.1 uM relative to control
[23] = target: Casein kinase I isoform epsilon (Homo sapiens) (UniProt P49674); assay: Inhibition of CK1epsilon (unknown origin) at 0.1 uM relative to control
Casein kinase I isoform epsilon (Homo sapiens), sequence (P49674 whole entry, looked up, canonical isoform): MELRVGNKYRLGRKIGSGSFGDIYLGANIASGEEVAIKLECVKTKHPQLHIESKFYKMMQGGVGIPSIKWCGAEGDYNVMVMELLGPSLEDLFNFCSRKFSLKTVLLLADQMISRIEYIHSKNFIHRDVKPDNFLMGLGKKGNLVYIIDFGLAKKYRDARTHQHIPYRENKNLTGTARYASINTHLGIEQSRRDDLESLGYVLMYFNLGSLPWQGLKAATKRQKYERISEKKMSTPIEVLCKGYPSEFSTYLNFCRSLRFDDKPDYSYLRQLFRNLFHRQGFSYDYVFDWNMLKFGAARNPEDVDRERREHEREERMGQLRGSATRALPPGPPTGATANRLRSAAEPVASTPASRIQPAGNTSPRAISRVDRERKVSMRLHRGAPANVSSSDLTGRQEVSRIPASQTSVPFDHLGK

[24] = target: Serine/threonine-protein kinase SIK2 (Homo sapiens) (UniProt Q9H0K1); assay: Inhibition of SIK2 (unknown origin) at 0.1 uM relative to control
[25] = target: Tyrosine-protein kinase ABL2 (Homo sapiens) (UniProt P42684); assay: Inhibition of Arg (unknown origin) at 0.1 uM relative to control
[26] = target: Glycogen synthase kinase-3 alpha (Homo sapiens) (UniProt P49840); assay: Inhibition of GSK3alpha (unknown origin) at 0.1 uM relative to control
[27] = target: Phosphorylase b kinase gamma catalytic chain, skeletal muscle/heart isoform (Homo sapiens) (UniProt Q16816); assay: Inhibition of PhKgamma1 (unknown origin) at 0.1 uM relative to control
Phosphorylase b kinase gamma catalytic chain, skeletal muscle/heart isoform (Homo sapiens), sequence (Q16816 whole entry, looked up, canonical isoform): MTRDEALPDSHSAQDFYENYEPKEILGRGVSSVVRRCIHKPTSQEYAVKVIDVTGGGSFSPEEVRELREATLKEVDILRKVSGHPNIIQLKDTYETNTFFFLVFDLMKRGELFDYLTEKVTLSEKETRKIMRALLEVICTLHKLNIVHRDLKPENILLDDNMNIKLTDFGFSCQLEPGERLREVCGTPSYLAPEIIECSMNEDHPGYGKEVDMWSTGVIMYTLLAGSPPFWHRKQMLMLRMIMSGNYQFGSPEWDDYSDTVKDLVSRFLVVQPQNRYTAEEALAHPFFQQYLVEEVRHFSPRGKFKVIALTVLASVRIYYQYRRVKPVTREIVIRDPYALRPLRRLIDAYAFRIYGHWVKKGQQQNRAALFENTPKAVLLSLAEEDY

[28] = target: Mitogen-activated protein kinase 3 (Homo sapiens) (UniProt P27361); assay: Inhibition of ERK1 (unknown origin) at 0.1 uM relative to control
[29] = target: Tyrosine-protein kinase SYK (Homo sapiens) (UniProt P43405); assay: Inhibition of Syk (unknown origin) at 0.1 uM relative to control
[30] = target: Receptor tyrosine-protein kinase erbB-4 (Homo sapiens) (UniProt Q15303); assay: Inhibition of ErbB4 (unknown origin) at 0.1 uM relative to control
[31] = target: Tyrosine-protein kinase JAK3 (Homo sapiens) (UniProt P52333); assay: Inhibition of JAK3 (unknown origin) at 0.1 uM relative to control
[32] = target: Casein kinase II subunit alpha (Homo sapiens) (UniProt P68400); assay: Inhibition of CK2alpha1 (unknown origin) at 0.1 uM relative to control
Casein kinase II subunit alpha (Homo sapiens), sequence (P68400 whole entry, looked up): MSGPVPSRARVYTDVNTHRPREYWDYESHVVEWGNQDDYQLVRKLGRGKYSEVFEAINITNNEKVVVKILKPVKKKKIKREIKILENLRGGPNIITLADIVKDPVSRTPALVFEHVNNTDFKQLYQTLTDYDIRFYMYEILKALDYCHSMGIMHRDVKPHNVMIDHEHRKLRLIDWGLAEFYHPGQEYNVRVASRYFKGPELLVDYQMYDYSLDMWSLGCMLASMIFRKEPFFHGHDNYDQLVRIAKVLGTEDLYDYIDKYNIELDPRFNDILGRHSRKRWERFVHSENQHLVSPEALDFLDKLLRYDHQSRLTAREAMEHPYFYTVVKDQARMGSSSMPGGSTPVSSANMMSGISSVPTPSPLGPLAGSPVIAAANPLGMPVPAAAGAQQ

[33] = target: Serine/threonine-protein kinase PLK3 (Homo sapiens) (UniProt Q9H4B4); assay: Inhibition of PLK3 (unknown origin) at 0.1 uM relative to control
Homo sapiens = species: Homo sapiens; assay: Inhibition of p70S6K (unknown origin) at 0.1 uM relative to control
[34] = target: Mitogen-activated protein kinase kinase kinase kinase 4 (Homo sapiens) (UniProt O95819); assay: Inhibition of MAP4K4 (unknown origin) at 0.1 uM relative to control
[35] = target: Serine/threonine-protein kinase PAK 4 (Homo sapiens, UniProt O96013); assay: Inhibition of PAK4 (unknown origin) at 0.1 uM relative to control
[36] = target: Serine/threonine-protein kinase PAK 6 (Homo sapiens, UniProt Q9NQU5); assay: Inhibition of PAK6 (unknown origin) at 0.1 uM relative to control
[37] = target: Protein-tyrosine kinase 6 (Homo sapiens) (UniProt Q13882); assay: Inhibition of Brk (unknown origin) at 0.1 uM relative to control
[38] = target: Vascular endothelial growth factor receptor 1 (Homo sapiens) (UniProt P17948); assay: Inhibition of Flt1 (unknown origin) at 0.1 uM relative to control

SMILES | inhibition [1] | inhibition [2] | inhibition [3] | inhibition [4] | inhibition [5] | inhibition [6] | inhibition [7] | inhibition [8] | inhibition [9] | inhibition [10] | inhibition [11] | inhibition [12] | inhibition [13] | inhibition [14] | inhibition [15] | inhibition [16] | inhibition [17] | inhibition [18] | inhibition [19] | inhibition [20] | also measured
COCCNc1nc2ccc(C#CC3(O)CCCCC3)cc2n1-c1ccnc(N)n1 | 7.4% | -0.2% | 11.3% | 5.9% | 7.6% | 2.7% | 2.9% | 4.6% | 75.1% | -0.2% | 6.2% | 4.4% | 16.4% | 2.8% | 2.5% | 2.4% | 1.1% | 1.6% | 10.6% | 8.1% | inhibition [21]: 11.6%; inhibition [22]: 8.2%; inhibition [23]: 7.3%; inhibition [24]: 0.8%; inhibition [25]: 10.2%; inhibition [26]: 9.7%; inhibition [27]: 12.5%; inhibition [28]: 6.2%; inhibition [29]: 4.3%; inhibition [30]: -1%; inhibition [31]: -1.3%; inhibition [32]: 5.2%; inhibition [33]: 9.2%; inhibition (Homo sapiens): 7.2%; inhibition [34]: 14.6%; inhibition [35]: 89.5%; inhibition [36]: 49.9%; inhibition [37]: 10.2%; inhibition [38]: -6%
CN1CCc2cc(-c3cnc4[nH]cc(C(=O)c5ccccc5Cl)c4c3)ccc2C1 | 14.5% | 99.5% | 25.8% | 70.2% | -4.8% | 2.3% | 6.5% | 11% | 28.5% | 91.5% | 28% | 97% | 49.5% | 19.6% | 23.8% | 38% | 3.3% | -0.9% | 16% | 16.5% | inhibition [21]: 91.5%; inhibition [22]: 53.8%; inhibition [23]: 44%; inhibition [24]: 96.3%; inhibition [25]: 95.3%; inhibition [26]: 40.6%; inhibition [27]: 8.3%; inhibition [28]: 12.3%; inhibition [29]: 37.1%; inhibition [30]: 78.9%; inhibition [31]: 45.4%; inhibition [32]: -3.5%; inhibition [33]: -5.8%; inhibition (Homo sapiens): 15.3%; inhibition [34]: 104%; inhibition [35]: 29.2%; inhibition [36]: 21.8%; inhibition [37]: 92.5%; inhibition [38]: 18.6%
